Common to all, as to type: functional
Test [1] relates to Mycobacterium tuberculosis. Kind of test: Antimycobacterial activity against ethionamide-resistant Mycobacterium tuberculosis H37Rv ATCC 35830 after 16 to 24 hrs by alamar blue assay.
Test [2] concerns Mycobacterium tuberculosis. Kind of test: Antimycobacterial activity against pyrazinamide-resistant Mycobacterium tuberculosis H37Rv ATCC 35828 after 16 to 24 hrs by alamar blue assay. (The colour change of resazurin is a common sign of viable cells or microbes.)
The subject of test [3] is Mycobacterium tuberculosis. Kind of test: Antimycobacterial activity against isoniazid-, rifampin-resistant Mycobacterium tuberculosis after 16 to 24 hrs by alamar blue assay.
In test [4] the test system is Mycobacterium tuberculosis. Kind of test: Antimycobacterial activity against isoniazid-, rifampin-, ethambutol-resistant Mycobacterium tuberculosis after 16 to 24 hrs by alamar blue assay.
Test [5] deals with Mycobacterium tuberculosis. Kind of test: Antimycobacterial activity against isoniazid-, rifampin-, streptomycin-resistant Mycobacterium tuberculosis after 16 to 24 hrs by alamar blue assay.
For test [6], the system named is Mycobacterium tuberculosis. Kind of test: Antimycobacterial activity against isoniazid-, rifampin-, streptomycin-, ethambutol-resistant Mycobacterium tuberculosis after 16 to 24 hrs by alamar blue assay.
The test system of test [7] is Mycobacterium tuberculosis. Kind of test: Antimycobacterial activity against isoniazid-, rifampin-, ofloxacin-, ethambutol-resistant Mycobacterium tuberculosis after 16 to 24 hrs by alamar blue assay.
The test system of test [8] is Mycobacterium tuberculosis. The test can be described thus: Antimycobacterial activity against isoniazid-, rifampin-, ofloxacin-, streptomycin-resistant Mycobacterium tuberculosis after 16 to 24 hrs by alamar blue assay.
Test [9] concerns Mycobacterium tuberculosis. The test can be described thus: Antimycobacterial activity against isoniazid-, rifampin-, ofloxacin-, ethambutol-, streptomycin-resistant Mycobacterium tuberculosis after 16 to 24 hrs by alamar blue assay.

≈ marks a conversion by molar mass, not a printed value.

For orientation: MIC means the smallest concentration in the dilution series that meets the test's criterion for growth inhibition. High values mean a need for much substance, low ones inhibition by little substance. As for `COc1ccc2cc1-c1cc(ccc1O)C[C@@H]1NCCc3cc4c(cc31)Oc1c(c(OC)cc3c1[C@H](C2)N(C)CC3)O4`, the minimum inhibitory concentration (MIC) in test [1] and in test [2] was 6.2 µg/mL (≈ 11 µM) each time.

As to `COc1ccc2cc1-c1cc(cc(Br)c1O)C[C@H]1c3cc4c(cc3CCN1C)Oc1c(OC)cc3c(c1O4)[C@H](C2)N(C)CC3`, the minimal inhibitory concentration (MIC) in [1] and in test [2] was 3.1 µg/mL (≈ 4.73 µM) each time.

On to `CC[C@@H](CO)NCCN[C@@H](CC)CO` [ETHAMBUTOL], for which the minimum inhibitory concentration (MIC) in test [3] is at most 2 µg/mL; in [4], at least 8 µg/mL; in test [5] it was at most 2 µg/mL; in test [6], at least 8 µg/mL; in [7], at least 8 µg/mL; in test [8], at most 2 µg/mL. Besides, the MIC in [9] is at least 8 µg/mL.

For `NNC(=O)c1ccncc1` [ISONIAZID], the minimal inhibitory concentration (MIC) in test [3], in test [4], in test [5], in test [6], in [7] and in test [8] was at least 2 µg/mL each time. In [9], this compound had an MIC of at least 2 µg/mL.

Take `CC1COc2c(N3CCN(C)CC3)c(F)cc3c(=O)c(C(=O)O)cn1c23` (stereo not drawn) [OFLOXACIN]: the MIC in test [3] was at most 2 µg/mL; in test [4], at most 2 µg/mL; in test [5] it was at most 2 µg/mL; in test [6], at most 2 µg/mL; in [7], at least 4 µg/mL; in test [8], at least 4 µg/mL. In test [9], this compound displayed an MIC of at least 4 µg/mL.

`CO[C@H]1/C=C/O[C@@]2(C)Oc3c(C)c(O)c4c(O)c(c(/C=N/N5CCN(C)CC5)c(O)c4c3C2=O)NC(=O)/C(C)=C\C=C\[C@H](C)[C@H](O)[C@@H](C)[C@@H](O)[C@@H](C)[C@H](OC(C)=O)[C@@H]1C` [RIFAMPIN]: the minimal inhibitory concentration (MIC) in test [3], in test [4], in test [5], in test [6], in test [7] and in [8] was at least 2 µg/mL in each case. The same compound had an MIC in [9] of at least 2 µg/mL.

As for `CN[C@@H]1[C@H](O[C@H]2[C@H](O[C@H]3[C@H](O)[C@@H](O)[C@H](N=C(N)N)[C@@H](O)[C@@H]3N=C(N)N)O[C@@H](C)[C@]2(O)C=O)O[C@@H](CO)[C@H](O)[C@H]1O` [STREPTOMYCIN], the minimum inhibitory concentration (MIC) was at most 2 µg/mL in test [3]; at most 2 µg/mL in [4]; at least 8 µg/mL in [5]; at least 8 µg/mL in test [6]; at most 2 µg/mL in test [7]; at least 8 µg/mL in test [8]. This compound also yielded a minimum inhibitory concentration (MIC) in test [9] of at least 8 µg/mL.

On to `COc1ccc2cc1-c1cc(ccc1O)C[C@H]1c3cc4c(cc3CCN1C)Oc1c(OC)cc3c(c1O4)[C@@H](C2)N(C)CC3` [TILIACORINE], for which the minimum inhibitory concentration (MIC) came to 3.1 µg/mL (≈ 5.38 µM) in test [1] and 6.2 µg/mL (≈ 10.8 µM) in test [2].

On to `COc1ccc2cc1-c1cc(ccc1O)C[C@H]1c3cc4c(cc3CCN1C)Oc1c(OC)cc3c(c1O4)[C@H](C2)N(C)CC3` [TILIACORININE], for which the MIC in test [1] is 3.1 µg/mL (≈ 5.38 µM); in test [2], 6.2 µg/mL (≈ 10.8 µM).

Values taken from ChEMBL document CHEMBL2016451, “Antimycobacterial activity of bisbenzylisoquinoline alkaloids from Tiliacora triandra against multidrug-resistant isolates of Mycobacterium tuberculosis” (Bioorg Med Chem Lett, 2012).
